Test results published in patent publication US6265423A, “Aromatic polycyclic retinoid-type derivatives, method for preparing same, and use thereof for making pharmaceutical and cosmetic compositions” (priority 1996, dated 2001).
Like-named read-outs stand apart in the source and are kept apart here.

Assays:
[1] = system: ZR-75-1 human mammary cancer cells; experiment: MTT test, proliferation of ZR-75-1; assay type: cell-based; details: for activity at 100 µM / activity at 1 µM / activity at 0.01 µM: Homo sapiens, read-out: level of proliferation; for effect on cellular increase, ZR-75-1 (in words): MTT test
Method in brief: (§1)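 After 24 h seeding, cells in MEM with 5% decomplemented FCS at 37° C were exposed to compound at 10^-8 M, 10^-6 M and 10^-4 M. Viability was assessed by MTT reduction to formazan, dissolved in DMSO. Mean optical density is expressed as % of untreated control (100%), in 6 duplicates.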

[2] = system: response element RARE of RARβ gene, endogenic retinoic receptors, HRLN lineage; experiment: HRLN transactivation (RARE-luciferase, stably transfected HeLa); assay type: cell-based; details: for Emax / EC50: Homo sapiens, HeLa; for Emax: read-out: HRLN transactivation, E max; for EC50: concentrations from 1 nM to 1 μM
Method: (§2) MCF-7 cells and HeLa are cultivated in DMFM with phenol red to which 5% foetal calf serum is added. The T47-D cells are cultivated in RPMI to which 10% foetal calf serum is added. The experimental tests are carried out in DMEM without phenol red to which foetal calf serum treated with dextran carbon is added at 3%. […] The experiments using the different retinoids are carried out sheltered from the light so as to avoid any isomerisation.
(§3) Certain properties of the retinoids have been determined using more developed cellular models. These models consist of cellular lineages transfected in a stable fashion by recombinant plasmids which place the expression of the gene of the luciferase under the control of different nuclear response elements. […] The tests carried out in duplicate are described below for each of these models.
(§4) The cellular lineages HRLN and HRL+N allow one to study the activation of an RARE by endogenic receptors using ligands at physiological concentrations. These lineages derive from HeLa cells transfected in a stable fashion by a reporter gene which places the expression of the gene of the luciferase under the control of a nuclear response element RARE (RARE3 -tk-Luc). The HeLa cells express all the known receptors of the retinoic acid (RARα,β,γ and RXRα,β,γ) with a predominance of RARα and RXRα. The response element RARE used for the HRLN cells corresponds to the sequence of the natural gene of the RARβ receptor (GGTTCAnnnnnAGTTCA). The HRL+N cells comprise the sequence GAGTGAnnnnnCGGTGA.
This lineage comprises the response element RARE of the natural gene of the RARβ receptor which controls the expression of the gene of the luciferase.

[3] = system: T-47D human mammary cancer cells; experiment: MTT test, proliferation of T-47D; assay type: cell-based; details: for activity at 100 µM / activity at 1 µM / activity at 0.01 µM: Homo sapiens, T47D, 72 h, read-out: level of proliferation; for effect on cellular increase, T-47D (in words): MTT test
Method in brief: as §1

[4] = system: A-427 human pulmonary cancer cells; experiment: MTT test, proliferation of A-427; details: for activity at 100 µM / activity at 0.01 µM / activity at 1 µM: Homo sapiens, A-427, 72 h, read-out: level of proliferation; for effect on cellular increase, A-427 (in words): MTT test
[5] = system: T-47D cells; experiment: Effect on oestrogen-induced proliferation of T-47D cells; assay type: cell-based, human
[6] = system: ERE-βGlob-Luc, MELN lineage (MCF-7); experiment: Anti-oestrogenic effect, MELN lineage activated by estradiol; assay type: cell-based, human; details: for inhibition: 10^-6 M; for anti-oestrogenic effect (in words): estradiol-activated MELN cells
Source text: as §3
MCF-7 cells express RARα,γ and RXRα. The transfection of MCF-7 cells by an oestrogen-dependent gene (ERE-βGlob-Luc) has permitted the establishment of the MELN cellular lineage, used to determine the anti-oestrogenic activity of the retinoids. These cells contain the gene of the luciferase under the transcriptional control of the promoter of the βGlobine and of the response element ERE isolated from the gene of chicken vitelogenine A2. The experiments are carried out with MELN cells activated by 10^-9 M estradiol. The level of base activity of the MELN cells is obtained with the anti-oestrogen 1 μM 4-OH-tamoxifen (hydroxytamoxifen).
The effect of the products tested on the cells activated by 10^-9 M estradiol is expressed as a percentage, the level of base activity being deducted.

[7] = system: Gal4-RAR (RARα, RARβ, RARγ); experiment: Chimerical receptors Gal4-RAR, overall profile; assay type: cell-based
[8] = system: Gal4-RARα; experiment: Transactivation, chimerical receptor Gal4-RARα (transitory transfection of HeLa); assay type: cell-based; details: 100% = TTNPB 10^-8 M
[9] = system: Gal4-RARγ; experiment: Transactivation, chimerical receptor Gal4-RARγ (transitory transfection of HeLa); assay type: cell-based; details: 100% = TTNPB 10^-8 M
[10] = system: RARE, endogenic RAR and RXR receptors, HRL+N lineage; experiment: HRL+N transactivation (RARE-luciferase, stably transfected HeLa); assay type: cell-based
Method: as §2, §3, §4
The HRL+N lineage allows one to visualise a co-activation of the RAR and RXR receptors at the level of the RAR-RXR hetero-dimer.

[11] = ZR-75-1, 10^-4 M, 72 h, control = 100%
[12] = ZR-75-1, 10^-6 M, 72 h, control = 100%
[13] = ZR-75-1, 10^-8 M, 72 h, control = 100%
[14] = Homo sapiens, MCF7, read-out: anti-oestrogenic effect, inhibition
[15] = Homo sapiens, MCF7, cells activated by 10^-9 M estradiol
[16] = Homo sapiens, MCF7, 10^-7 M, cells activated by 10^-9 M estradiol, read-out: anti-oestrogenic effect, inhibition
[17] = Homo sapiens, MCF7, 10^-8 M, cells activated by 10^-9 M estradiol, read-out: anti-oestrogenic effect, inhibition

Compound | activity at 100 µM [1, 11] | activity at 1 µM [1, 12] | activity at 0.01 µM [1, 13] | effect on cellular increase, ZR-75-1 (in words) [1] | HRLN transactivation (in words) [2] | activity at 100 µM ([3]; T-47D, 10^-4 M, control = 100%) | activity at 1 µM ([3]; T-47D, 10^-6 M, control = 100%) | activity at 0.01 µM ([3]; T-47D, 10^-8 M, control = 100%) | effect on cellular increase, T-47D (in words) [3] | activity at 100 µM [4] | inhibition at 0.1 µM [6, 14] | Gal-RAR agonist profile (in words) [7] | Emax [2] | GAL4-RAR RARα transactivation ([8]; 10^-6 M) | GAL4-RAR RARγ transactivation ([9]; 10^-6 M) | activity at 0.01 µM [4] | activity at 1 µM [4] | inhibition [6, 15] | inhibition at 0.1 µM [6, 16] | anti-oestrogenic effect (in words) [6] | other results
CC(C=C/C=C(C)\C=C\C1=C(C)CCCC1(C)C)=CC(=O)O [CB13407, 9-cis retinoic acid, reference compound] | 39.2% | 130% | 137% | stimulates the cellular increase at 10^-6 M and 10^-8 M | induce a dose-dependent activation | 16.3% | 91.7% | 122% | stimulates the cellular increase at 10^-6 M and 10^-8 M | 5.9% | 35% | – | – | – | – | – | – | – | – | – | IC50 ([5]; Homo sapiens, T47D, 168 h, read-out: anti-proliferation effect, T-47D IC50): 25.1 ± 1.4 nM
CC1(C)CCC(C)(C)c2cc(/C=C(\c3ccc(C(=O)O)cc3)C(F)(F)F)ccc21 [CB36493, (E) 4-[1-trifluoromethyl-2-(5,6,7,8-tetrahydro-5,5,8,8-tetramethyl-2-naphthalenyl)-1-ethenyl]benzoic acid] | 8.6% | 108% | 108% | – | induce a transactivation close to that of TTNPB | 21.4% | 116% | 134% | – | 1.6% | – | partial agonists at 1 μM for the three RAR receptors | 97% | 38% | 50% | 89.9% | 87.2% | 17 to 32% | 0% | permit a transrepression of a controlled gene by an ERE | activity at 1 µM ([5]; Homo sapiens, T47D, 168 h, 10^-6 M, 100% = E2 10^-9 M, 7 days, read-out: growth of T-47D cells): 68 to 78%
C/C(=C\c1cc2c(cc1C)C(C)(C)CCC2(C)C)c1ccc(C(=O)O)cc1 [CB71802] | 7.8% | 96% | 101% | – | – | 14.3% | 113% | 132% | – | 1% | – | – | 76% | – | – | 69.7% | 65.6% | 32 to 48% | 37% | – | EC50 [2]: 31.4 ± 16.9 nM; effect on cellular increase, A-427 (in words) [4]: inhibits the increase of these two pulmonary lineages the most strongly; inhibition at 1 µM ([5]; Homo sapiens, T47D, 168 h, 1 μM (10^-6 M), 7 days, estradiol 10^-9 M, read-out: percentage inhibition of growth, T-47D): 72%; inhibition at 0.01 µM [6, 17]: 5%
C/C(=C\c1ccc2c(c1)C(C)(C)CCC2(C)C)c1ccc(C(=O)Nc2nnn[nH]2)cc1 [CB73364] | 0% | 101% | 119% | – | – | 0% | 53% | 62% | inhibits the increase of the T-47D cells | 0.1% | – | – | 89% | – | – | 92.7% | 87.2% | 20 to 41% | 24% | – | EC50 [2]: 33 nM; effect on oestrogen-induced growth, T-47D (in words) ([5]; estradiol 10^-9 M): exerts an effect comparable to TTNPB; inhibition at 0.01 µM [6, 17]: 13%
Cc1cc2c(cc1C(=O)c1ccc(C(=O)O)cc1)C(C)(C)CCC2(C)C [LGD-CB14499, reference compound] | – | – | – | – | – | – | – | – | – | – | 0% | – | – | 17% | 13% | – | – | – | – | inactive | activity at 0.01 µM ([1]; ZR-75-1, 72 h): 107%; activity at 1 µM ([1]; ZR-75-1, 72 h): 104%; activity at 100 µM ([1]; ZR-75-1, 72 h): 42.4%; GAL4-RAR RARα transactivation ([8]; 10^-7 M): 4%; GAL4-RAR RARα transactivation ([8]; 10^-8 M): 1%; GAL4-RAR RARγ transactivation ([9]; 10^-7 M): 0%; GAL4-RAR RARγ transactivation ([9]; 10^-8 M): 0%; activity at 0.01 µM [3]: 88.2%; activity at 1 µM [3]: 82.7%; activity at 100 µM [3]: 1.3%; HRL+N transactivation (in words) [10]: induce a stronger transactivation with the HRL+N cells; inhibition at 1 µM [6, 14]: 0%
C/C(=C\c1ccc(C(=O)O)cc1)c1ccc2c(c1)C(C)(C)CCC2(C)C [TTNPB, reference compound] | 15.7% | 69.8% | 60.6% | inhibit the cellular increase of the two mammary lineages at the concentrations tested | – | 3.5% | 61.7% | 58.5% | inhibit the cellular increase of the two mammary lineages at the concentrations tested | 3.6% | – | good RAR agonists | – | – | – | 78.9% | 78.5% | – | – | – | effect on cellular increase, A-427 (in words) [4]: inhibits the A-427 lineage at 10^-6 M and 10^-8 M; effect on oestrogen-induced growth, T-47D (in words) ([5]; estradiol 10^-9 M): stronger inhibiting effect than the natural ligands (all-trans RA and 9-cis RA) and than LGD1069; inhibition at 0.01 µM [6, 14]: 30 to 41%; anti-oestrogenic effect, inhibition (of the order of) ([6]; MELN, estradiol 10^-9 M): ~40%
